Patent publication US20110112193A1 (priority 2008, published 2011)
pIC50: −log10 of the molar value.

Target: T1, Recombinant human LTC4 synthase (Homo sapiens, UniProt Q16873)
T1 construct: made in house; host or cells: Pichia pastoris ('Piccia pastoralis' [sic])
T1 sequence (Q16873 1-150): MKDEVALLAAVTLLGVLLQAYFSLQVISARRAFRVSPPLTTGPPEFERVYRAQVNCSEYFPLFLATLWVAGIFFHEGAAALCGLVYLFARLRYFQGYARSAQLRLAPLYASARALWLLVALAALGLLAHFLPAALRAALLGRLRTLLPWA
Test: LTC4 synthase in vitro assay (e.g. by HTRF detection)
Assay type: biochemical
Procedure: In the assay, LTC4 synthase catalyses the reaction where the substrate LTA4 methyl ester is converted to the corresponding LTC4 methyl ester. Recombinant human LTC4 synthase is expressed in Piccia pastoralis and the purified enzyme is dissolved in 25 mM Tris-buffer pH 7.8 and stored at −80° C. The assay is performed in phosphate buffered saline (PBS) pH 7.4, supplemented with 5 mM glutathione (GSH). The reaction is terminated by addition of acetonitrile/MeOH/acetic acid (50/50/1). The assay is performed at rt in 96-well plates. Analysis of the formed LTC4 methyl ester is performed with reversed phase HPLC (Waters 2795 utilizing an Onyx Monolithic C18 column). The mobile phase consists of acetonitrile/MeOH/H2O (32.5/30/37.5) with 1% acetic acid pH adjusted with NH3 to pH 5.6, and absorbance measured at 280 nm with a Waters 2487 UV-detector.
The following is added chronologically to each well: • 1. 50 μl assay buffer, PBS with 5 mM GSH. • 2. 0.5 μl inhibitor in DMSO (final conc. 1 nM-10 μM). • 3. 2 μl LTC4 synthase in PBS. The total protein concentration in this solution is 0.025 mg/ml. Incubation of the plate at room temperature for 10 minutes. • 4. 1-1.5 μl LTA4 methyl ester (final conc. 10 μM). Incubation of the plate at rt for 1 min. • 5. 50 μl stop solution.
80 μl of the incubation mixture is analysed with HPLC.
Alternatively, HTRF detection can be used:
In the assay, LTC4 synthase catalyses the reaction where the substrate LTA4 is converted to LTC4. Recombinant human LTC4 synthase is expressed in Piccia pastoralis and the purified enzyme is dissolved in 25 mM tris-buffer pH 7.8 supplemented with 0.1 mM glutathione (GSH) and stored at −80° C. The assay is performed in phosphate buffered saline (PBS) pH 7.4 and 5 mM GSH in 384-well plates.
The following is added chronologically to each well:
1.48 μL LTC4 synthase in PBS with 5 mM GSH. The total protein concentration in this solution is 0.5 μg/mL.
2. 1 μL inhibitor in DMSO (final concentration 1 nM to 10 μM).
3. Incubation of the plate at room temperature for 10 min.
4. 1 μL LTA4 (final concentration 2.5 μM).
5. Incubation of the plate at room temperature for 5 min.
6. 10 μL of the incubation mixture is analysed using homogenous time resolved fluorescent (HTRF) detection.

## CCCCOc1ccc(S(=O)(=O)Nc2ccc(Oc3ccc(Nc4ccc(F)c(F)c4)cc3C(=O)O)cc2)cc1 [Example 1, 2-[4-(4-Butoxy-benzene-sulfonylamino)-phenoxy]-5-(3,4-difluoro-phenyl-amino)-benzoic acid]
  pIC50: 6.61

## CCCCOc1ccc(S(=O)(=O)Nc2ccc(Oc3ccc(Nc4ccc(F)c(F)c4)cc3C(=O)O)cc2C(=O)O)cc1 [Example 3, 2-(4-Butoxy-benzene-sulfonylamino)-5-[2-carboxy-4-(3,4-difluoro-phenylamino)-phenoxy]-benzoic acid]
  pIC50: 5.99

## O=C(O)c1cc(Oc2ccc(Nc3ccc(F)c(F)c3)cc2C(=O)O)ccc1Nc1ccc(F)c(F)c1 [Example 4]
  pIC50: 5.69

## O=C(O)c1cc(Nc2ccc(F)c(F)c2)ccc1Oc1ccc(Nc2ccc(F)c(F)c2)cc1 [Example 2, 5-(3,4-Difluoro-phenylamino)-2-[4-(3,4-difluoro-phenylamino)-phenoxy]-benzoic acid]
  pIC50: 5.72
